Structures are written as SMILES.

The values that follow come from the METLIN SMRT retention time set (Domingo-Almenara et al. 2019).

The series can be described thus: gradient 5% acetonitrile 3 min, to 50% in 2 min, to 85% in 15 min, held 3 min, 100 µL/min. The settings on record: column: Zorbax Extend-C18 2.1 x 50 mm; eluents: water / acetonitrile, 0.1% formic acid. Summed up: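 Standards, all pure, were combined into mixtures of ~100 molecules and run at 100 μL/min on a Zorbax Extend-C18 column (2.1 × 50 mm, 1.8 μm) with water and acetonitrile, each containing 0.1% formic acid. A coupled quadrupole time-of-flight mass spectrometer operated in positive and negative ionization mode. Retention time values come from computationally picked adduct peaks, each inspected manually.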
Turning to `CC(=O)N1c2ccc(S(=O)(=O)N3CCCCC3)cc2CC1C(=O)NCCN(C)Cc1ccccc1` (centres undefined), the RP-LC retention time was 676 s. The same measure for `CCc1ccccc1NC(=O)N1CCC(n2cnnc2C2CC2)C1` (centres undefined): 628 s; for `C=CCn1c(=O)c2c(nc3n2CCCCN3c2ccc(OCC)cc2)n(C)c1=O`: 917 s; for `O=C(NCCc1c[nH]c2ccc(F)cc12)c1cncc(Br)c1`: 796 s.

Turning to `COc1ccc(NC(=O)N2CCC(c3nc(C(=O)N4CCOCC4)c(C)o3)CC2)c(C)c1`, the RP-LC retention time is 663 s.

Take `O=S(=O)(c1ccc2c(c1)CCC2)N1CCCn2nc(-c3ccncc3)cc2C1`: the RP-LC retention time amounted to 687 s.

For the compound `CC(C)n1c(=O)c2ccccc2n(Cc2nc(-c3cccc(C(F)(F)F)c3)no2)c1=O`, the RP-LC retention time was 1230 s.

For the compound `O=C(NCc1ccccc1F)C1CCCN(c2nccnc2Sc2ccccc2)C1` (centres undefined), the RP-LC retention time came to 1050 s. As to `CCOC(=O)c1ccc(NC(=O)Cn2c(C)nc3c(sc4nc(-c5ccccc5)ccc43)c2=O)cc1`, the RP-LC retention time was 1100 s.

`O=C(c1ccc2c(c1)nnn2CCN1CCOCC1)N1CCN(c2ccccc2)CC1` showed an RP-LC retention time of 616 s.

As for `COC(=O)c1c(NCCCN2CCCC2)c2cccc(Cl)c2[nH]c1=O`, the RP-LC retention time was 550 s. Take `CN1c2ccc(F)cc2C(=O)NC12CCN(C(=O)Cc1ccccc1)CC2`: the RP-LC retention time was found to be 764 s. As for `CCN(CC)c1nc(-c2cccc(C)c2)nnc1C`, the RP-LC retention time stood at 719 s. `CC(C)c1nc2ccc(C(=O)NCCc3c[nH]c4ccc(Cl)cc34)cc2o1` came in with an RP-LC retention time of 941 s.

`Cc1cc(NC(=O)N(C)CC2CCOC2)ccc1Br` (centres undefined) gave an RP-LC retention time of 798 s. In turn, `COC(=O)c1scc(-c2ccccc2)c1S(=O)(=O)N1CCC(C(N)=O)(N2CCCCC2)CC1` yielded an RP-LC retention time of 662 s. As to `Cc1cc(C)cc(NC(=O)C2CCN(C(=O)c3ncn4c3COC(c3ccccc3)C4)CC2)c1` (centres undefined), the RP-LC retention time was 856 s.

`COc1cccc(CNC(=O)C2CCCN2S(=O)(=O)c2cc3c(cc2C)NC(=O)C(C)O3)c1` (centres undefined) gave an RP-LC retention time of 788 s. As to `Cc1ccc(Nc2nc(-c3ccncc3)nc3ccccc23)cc1`, the RP-LC retention time turned out to be 797 s. For the compound `Cc1ccc(-n2c(C)c(C)c3c(=O)n(CC(=O)NC4CCCC4)cnc32)cc1`, the RP-LC retention time is 834 s. The same measure for `Cc1ccccc1-c1noc(CN2N=NC3C(=O)N(c4cccc(Cl)c4)C(=O)C32)n1` (centres undefined): 996 s; for `CCCn1cc(-c2ccncc2)cc1C(=O)Nc1ccc(OC)c(OC)c1`: 654 s.

The compound `O=C(NCc1ccccc1F)c1c(O)c2cccnc2n(Cc2ccccc2)c1=O` displayed an RP-LC retention time of 1360 s. In turn, `CC(C)n1cc(C(=O)O)c(S(=O)(=O)N2CCCC2)n1` came in with an RP-LC retention time of 712 s.

The compound `CCc1noc(NC(C)=O)c1-c1ccc(OC)c(S(=O)(=O)Nc2cc(C)ccc2C)c1` registered an RP-LC retention time of 846 s. As for `CCn1c(C(=O)NC(C)CCc2ccccc2)cc2sc(Cl)cc21` (centres undefined), the RP-LC retention time stood at 1270 s. Regarding `CC(=O)Nc1cccc(-c2nc(-c3ccc4c(c3)oc(=O)n4C)no2)c1C`, the RP-LC retention time worked out at 750 s.

In the case of `CCC(C)NC(=O)Cc1c[nH]c2ncccc12` (centres undefined), the RP-LC retention time turned out to be 562 s.

`CCN(CC)C(=O)c1ccc2c(c1)N(CC(=O)NCCC1=CCCCC1)C(=O)CS2` returned an RP-LC retention time of 864 s. `c1ccc(CCc2nc3nccc(-c4ccncc4)n3n2)cc1` came in with an RP-LC retention time of 713 s. Regarding `O=C1COc2c(CCNCCN(C(=O)CCNCCc3ccc(Cl)c(Cl)c3)C3CCCCC3)ccc(O)c2N1`, the RP-LC retention time was determined as 691 s. Turning to `COc1ccccc1NS(=O)(=O)c1cc2c3c(c1)CCC(=O)N3CCC2`, the RP-LC retention time was 799 s. The compound `CCN(CC)C(=O)CCC1CCCN(c2cc(NC3CC3)ncn2)C1` (centres undefined) yielded an RP-LC retention time of 643 s. `Cc1cc(C)c(CNS(=O)(=O)c2cc(-c3nc(C)c(C)s3)cs2)c(C)c1` displayed an RP-LC retention time of 1310 s. The same measure for `O=C(Cc1ccc(NC(=O)Nc2ccc3c(c2)OCO3)cc1)NCC(F)(F)F`: 716 s; for `O=C(Cc1ccc(F)cc1)N1CCc2cc(-c3ccno3)ccc21`: 940 s; for `CCCCNC(=O)C1CCCN(C(=O)c2[nH]c(C)cc2C)C1` (centres undefined): 691 s.

In the case of `COc1ccc(C(=O)NCc2c(C)noc2C)cn1`, the RP-LC retention time was found to be 633 s. Take `Cc1ccc(NC(=O)N2CC(c3nc(C(C)C)nn3C)C2)cc1`: the RP-LC retention time was 689 s.

In turn, `O=C(CN1CCN(Cc2ccc(F)cc2)C(=O)C1=O)N1CCN(c2ccccc2F)CC1` displayed an RP-LC retention time of 778 s.

`CC(O)(CNC(=O)c1cnc2ccccc2n1)c1ccco1` (centres undefined) displayed an RP-LC retention time of 675 s. In the case of `O=C(Cc1ccsc1)NCCC1CCN(C(=O)Nc2ccccc2)CC1`, the RP-LC retention time was 792 s. In turn, `O=C(Nc1cc(-c2ccsc2)no1)c1ccc(Br)o1` gave an RP-LC retention time of 927 s.

In turn, `COc1ccccc1N1CCN(c2nc3ccccc3cc2-c2noc(C)n2)CC1` displayed an RP-LC retention time of 671 s.

For `Cc1ccc(N2CCC(NC(=O)c3ccc4nc[nH]c4c3)C2=O)cc1` (centres undefined), the RP-LC retention time was 607 s. Next, `CCN1CCCc2cc(C(=O)NCc3ccc(OC)cc3OC)sc21`: 973 s; `C[C@@H]1CN(C(=O)c2ccco2)C[C@H]1c1nc(-c2ccccc2)no1`: 936 s. The same measure for `Cc1cc(F)ccc1NC(=O)C1(C)Oc2cccnc2NC1=O` (centres undefined): 687 s. On to `COC(=O)c1ccc2c(=O)n(Cc3ccc(F)cc3)c(N3CCSC3)nc2c1`, for which the RP-LC retention time was determined as 1090 s.

For `O=C1NCN(c2ccccc2)C12CCN(CCCC(c1ccc(F)cc1)c1ccc(F)cc1)CC2`, the RP-LC retention time was determined as 892 s.

In the case of `CC(C)C(=O)N1CCc2c(c(C(=O)N3CCC(C(=O)N4CCC5(CC4)OCCO5)CC3)nn2C)C1`, the RP-LC retention time was determined as 626 s. The compound `Cc1cc(NC(=O)c2c(O)c3cccnc3n(-c3cccc(F)c3)c2=O)ccc1F` came in with an RP-LC retention time of 1310 s. Next, `CCN1C(=O)c2cc(C(=O)N3CCC(N4CCCCC4)CC3)nn2CC1(C)C(=O)NC1CCCC1` (centres undefined): 604 s. For the compound `Cc1cnc(C(=O)NCC2Cn3cccc3C(=O)N2C)cn1` (centres undefined), the RP-LC retention time came to 595 s. For the compound `COCCCNC(=O)C1CCCN(c2nccnc2Sc2ccccc2)C1` (centres undefined), the RP-LC retention time came out at 849 s.

The compound `COc1ccc(OC)c(CNC(=O)c2c(C)sc3ccn(CC(C)C)c(=O)c23)c1` showed an RP-LC retention time of 975 s.

Regarding `O=C(NCCn1c(=O)n(Cc2ccc(F)cc2)c2cccnc21)c1cccs1`, the RP-LC retention time was found to be 772 s. For `COc1ccc(C(=O)N2CC(F)(F)C[C@H]2COc2ccc3c(c2)CCC3)cn1`, the RP-LC retention time stood at 1150 s. Regarding `CC(CC(=O)N1CCN(Cc2ccccc2)CC1)S(=O)(=O)c1ccc2c(c1)CCN2C(=O)C1CC1` (centres undefined), the RP-LC retention time came to 656 s. Next, `CCOc1ccc(-n2c(=O)c3sccc3n(Cc3nc(-c4ccc(F)cc4)no3)c2=O)cc1`: 982 s; `N#Cc1cc2c(nc1SCC(=O)N1CCOCC1)CCCCC2`: 891 s. `CCc1ccc(NC(=O)C2CCCN2S(=O)(=O)c2ccc3c(c2)NC(=O)CO3)cc1` (centres undefined) had an RP-LC retention time of 859 s. As for `COc1ccc(C(CC(=O)N2CCCCC2)N2Cc3ccccc3C2=O)cc1OC` (centres undefined), the RP-LC retention time came out at 771 s. `COc1ccc(NC(=O)C2CC(=O)N(CCc3c[nH]c4ccc(Cl)cc34)C2)cc1` (centres undefined) returned an RP-LC retention time of 818 s. Compound `CSc1ccc(CNC(=O)CN2CCc3[nH]c4c(C)c(C)ccc4c(=O)c3C2)cc1` had an RP-LC retention time of 638 s. Turning to `CC(C)c1ccc(S(=O)(=O)N2C[C@@H](F)C[C@H]2C(=O)N2CCc3ccccc3C2)cc1`, the RP-LC retention time was 1060 s. Consider `COCCCNC(=O)C1CCN(c2ncnc3c2oc2ccccc23)CC1`, for which the RP-LC retention time worked out at 613 s. `Cc1nc([C@@H]2CN(C(=O)CCc3c(C)noc3C)C[C@H]2C(N)=O)n[nH]1` displayed an RP-LC retention time of 569 s. `Cc1cc(NC(=O)Nc2cccc3ccccc23)no1` gave an RP-LC retention time of 896 s. In the case of `CC1CCC(NC(=O)C2CCN(S(=O)(=O)c3cc(C(=O)N(C)C)cs3)CC2)CC1` (centres undefined), the RP-LC retention time was found to be 797 s.

For the compound `CCOc1ccc(NC(=O)c2cnc(N3CCN(C)CC3)nc2N)cc1`, the RP-LC retention time stood at 602 s.

Consider `Cn1c(=O)c2c(nc3n(-c4ccc(O)cc4)c(-c4ccc(Cl)cc4)cn23)n(C)c1=O`, for which the RP-LC retention time was 813 s. As for `Cc1ccc2c(Nc3ccc(F)c(Cl)c3)c(-c3nc(C)no3)cnc2n1`, the RP-LC retention time was 804 s. `O=S(=O)(c1ccc(F)cc1)N1CCC2(CC1)NCCN=C2NCc1ccc(Cl)cc1` came in with an RP-LC retention time of 722 s. In turn, `COC(=O)[C@H](CCCN=C(N)N)NS(=O)(=O)c1ccc(C)cc1` gave an RP-LC retention time of 667 s.

In turn, `CCCS(=O)(=O)N1CCCc2cc(NC(=O)Nc3cccc(OC)c3OC)ccc21` registered an RP-LC retention time of 908 s.

Consider `O=C(Cc1ccsc1)Nc1cnc(N2CCOCC2)nc1`, for which the RP-LC retention time amounted to 686 s. For the compound `CCNc1nc(-c2ccc(C3CCCCC3)cc2)cs1`, the RP-LC retention time is 1060 s. In turn, `Cc1ccc(C)c(S(=O)(=O)N2CCc3nc[nH]c3C2)c1` yielded an RP-LC retention time of 627 s.
